Assay results: patent US20240293364A1, “BIOMARKERS FOR CANCER THERAPY USING MDM2 ANTAGONISTS” (OTSUKA PHARMACEUTICAL CO., LTD., priority 2021, published 2024)

What was measured:
[1] = test system: ATM mutant cell lines (HCC1500, LNCap, HT-144, HepG2); assay: Proliferation assays on cancer cell lines (CellTiter-Glo), ATM mutant cell lines; type: cell-based; conditions: four ATMmut cell lines: HCC1500 breast, LNCap prostate, HT-144 melanoma, HepG2 liver (FIG. 2C)
Experimental: Cancer cells were cultured in appropriate medium. […] Each cell line was tested in triplicates.

[2] = test system: CAL-51; assay: CellTiter-Glo cell viability, combination matrix with PARP inhibitors (HSA synergy), CAL-51; type: cell-based; conditions: CAL-51, TP53 WT, BRCA2 Mutant, 72 h
Experimental: The cell line will be treated with test articles alone, matrix combinations with test articles and culture medium as vehicle control.
• 1. Harvest cells during the logarithmic growth period and count cell number. • 2. Adjust cell concentrations to 4.0×10^4cells/mL with respective culture medium. • 3. Add 100 μL cell suspensions to three 96-well plates (plates A, B and C) with the final cell density of 4×10^3 cells/well. 4a. Next Day: For the Plates of TO Reading: • 1) Equilibrate the plate A and its content at RT for approximately 30 min. • 2) Add 50 μL CellTiter-Glo reagent to each well. • 3) Mix content for 5 min on an orbital shaker to induce cell lysis. • 4) Allow the plate to incubate at RT for 20 min to stabilize luminescent signal. • 5) Record luminescence (TO) using EnVision Multi Label Reader. 4b. For the Plates of Test Reading: • 1) Prepare 500× solution of test articles (Top working concentration: 10 μM/100 μM of test articles in media with 3-fold serial dilutions to achieve 9 dose levels. • 2) Prepare 10× reference control solutions (Top working concentration: 100 μM in media with 3.16-fold serial dilutions. • 3) Dispense 500× drug solutions in each well (triplicate for each drug concentration) of the plate B using digital dispenser. […] Record luminescence (T3) using EnVision Multi Label Reader. […]

[3] = test system: panel of 237 cancer cell lines; assay: Cell panel screen of 237 cancer cell lines; type: cell-based; conditions: MSI-H colorectal cell lines
From the text: Genomic features for these cell lines such as somatic mutations, copy number alterations and hypermethylation were obtained from the list of Cancer Functional Events as mentioned in Garnett et al (2016) ANOVA method was used to identify significant associations of genomics features to drug response.

[4] = test system: ATM mutant cell lines LNCap and HepG2; assay: Apoptosis assays (Annexin V-FITC/PI flow cytometry); type: cell-based; conditions: LNCap prostate and HepG2 liver (FIG. 2D)
Experimental: After 72-hour incubation of the cells with compound, cells were trypsinised, washed with PBS and immediately used for flow cytometry analysis.
The samples were stained with eBioscience™ Annexin V-FITC Apoptosis Detection Kit (#BMS500FI-100, Thermo Fisher Scientific, Waltham, MA, USA) according to manufacturer's recommendations. Briefly, the samples were washed in PBS and resuspended in 200 μl of 1× binding buffer containing 5 μl of Annexin V-FITC for 10 min at room temperature. Following the incubation, samples were washed with 1× binding buffer and resuspended in 200 μl 1× binding buffer and 10 μl of the 20 μg/ml PI.
The stained samples were then immediately analysed by flow cytometry on Guava easyCyte HT cytometer (Merck-Millipore). The cell populations were separated into three groups: live cells showing only a low level of fluorescence (Annexin V-/PI-), apoptotic cells showing green fluorescence (Annexin V+/PI−) and dead cells showing both red and green fluorescence (Annexin V+/PI+). Data analyses were performed using Microsoft excel and results plotted on Prism version 7 (GraphPad Software, California, USA).

[5] = test system: xenograft model of MSI-H colorectal cancer (HCT-116); assay: In vivo efficacy, HCT116 xenograft; set-up: species or system BALB/c nude mice; conditions: HCT-116 xenograft, 50 mg/kg daily (FIG. 4D)
Experimental: 5×10^6 HCT116 cells (in 100 μl of PBS) were injected subcutaneously into the right hind flank of groups of BALB/c nude mice. Tumours were measured externally by using a pair of digital callipers and volumes calculated as length×width^2×0.523. Before starting the study, the mice were arranged into groups of 8 according to tumour volume; mean volume should be circa 100 mm^3 with a normal range of 50 to 150 mm^3. […] Tumour volumes were measured every 2 to 3 days; animals were sacrificed when tumour volume was >1000 mm^3 or if the tumours started to show any abnormalities, such as ulceration.

## CC[C@@](O)(c1cc(F)c2c(c1)C(=O)N([C@H](c1ccc(Cl)cc1)[C@H](C)C(=O)O)[C@@]2(OC)c1ccc(Cl)cc1)C1CCOCC1 [Example 124, (2S,3S)-3-(4-chlorophenyl)-3-[(1R)-1-(4-chlorophenyl)-7-fluoro-5-[(1S)-1-hydroxy-1-(oxan-4-yl)propyl]-1-methoxy-3-oxo-2,3-dihydro-1H-isoindol-2-yl]-2-methylpropanoic acid]
[1]
  sensitivity as measured by reduction in cell proliferation: showed sensitivity
[2]; Compound 1 in combination with Olaparib
  HSA_Average <−5 Antagonism >+5 Synergy: 8.0
[2]; Compound 1 in combination with Talazoparib
  HSA_Average <−5 Antagonism >+5 Synergy: 15.7
[3]
  sensitivity in the cell panel data: sensitive
[4]
  sensitivity as measured by increased apoptosis: showed sensitivity
[5]
  tumour growth inhibition: significantly inhibits tumour growth
